Data as given in patent US20070212712A1, “Methods for identifying modulators of hedgehog autoprocessing” (priority 2005, published 2007).

Test system: Shh-N signaling
Assay: Autoprocessing-independent Shh-N signaling assay (Gli-luciferase, control)
Assay type: cell-based, mouse
Conditions: 1 μM KAAD-cyclopamine
Method: This cell-based assay (FIGS. 1A and 1B) made use of Hh-responsive 3T3 mouse cells stably transfected with a Shh plasmid expressing full length Shh protein that undergoes autoprocessing to produce functionally active Shh protein. Cells incubated with pre-spliced N-Shh protein were used as a control. Shh signaling was assayed in control and treated cells using with dual luciferase reporter assay of luciferase activity expressed from an integrated copy of a Gli-luciferase reporter gene linked to of 8 tandem repeats of Gli transcription factor-binding sites, normalized to activity of a Renilla gene under the control of minimum TK promoter, to monitor toxicity and cell survival. Inhibition was confirmed by Western blot analysis of Hh autoprocessing (FIG. 2). Additional cell-based assays for testing the activities of candidate Hh autoprocessing inhibitors in blocking full-length Hh signaling include the measurement of Hh target gene expression (Patched, Gli , IGF2, N-myc; for example, via a luciferase-based assay) and chondrocyte differentiation of 10T½ cells. Persons skilled in the art will note that the above assays are also suitable for use in a cell-free assay system.

Question: `CC1=C2C[C@H]3[C@@H](CC=C4CC(=O)CC[C@@]43C)[C@@H]2CC[C@]12O[C@@H]1C[C@H](C)CN(CCNC(=O)CCCCCNC(=O)CCc3ccccc3)[C@H]1[C@H]2C` [KAAD-cyclopamine] was tested. Which “Effect on Gli-luciferase activity in response to Shh-N” value did it give?
Answer: inhibited Gli-luciferase activity
